Data from US12582642B2, “Composition for treating, improving, and/or preventing progression of bovine papillomatosis caused by bovine papillomavirus” (KinoPharma, Inc., priority 2020, dated 2026).
Several values for one entry are separate records, joined by “and”; a condition that tells them apart may be missing. Equal entries are not always repeated. Entries after “also recorded” stand apart in the source; their conditions may differ.

How the values were obtained:
[1] = tested on: bovine papilloma (wart) caused by BPV in front teats; assay: Therapeutic effect confirmation test performed on dairy cow having papilloma; format: in vivo, cow (female dairy cows); parameters: key to Determination (pharmaceutical effect for each individual cow): Effective: Test section>Control section; Ineffective: Test section≤Control section
Text: To female dairy cows (four), each having papillomas in both of front teats, an ointment agent containing Compound A was applied once a day to a papilloma (wart) of one of the front teats (test section). A dressing tape (Navis, PROSHARE Dressing Role, No. 8-5965-01) was applied around the teat after the application of the ointment agent to prevent external contamination. The ointment agent was applied over a surface of the teat at about 0.01 g to about 0.2 g (equivalent to the active ingredient of about 0.3 mg to about 6 mg) per 1 cm^2 of the surface area. The application (treatment) of 5-day administration with 2-day rest was continued for 4 weeks. The diseased part was imaged once a week. Pharmaceutical effects were evaluated based on a state of the diseased part (wart) four weeks after the start of the application.
Changes (size reduction/disappearance, no change, and growth/occurrence) of warts after four-week administration were evaluated with the following three-level evaluation scores. No change” includes the suppression of growth and being non-effective. “Occurrence” means that a new wart was generated during the four-week administration.
Size reduction/disappearance=+1, no change=0, and growth/occurrence=−1.
Further, scores were added for each individual cow, and pharmaceutical effects for each individual cow were determined based on the following criteria. • Effective: Test section>Control section • Ineffective: Test section≤Control section
When only small warts were targeted, the growth or size reduction of warts noticeably appear, which is considered to make it easier to determine the effects of Compound A. In view of this, only warts having a size of less than 5 mm before the application of an ointment agent were selected from the test sections and the control sections in the above-described confirmation test, and the ratio of warts that had smaller sizes or disappeared was calculated.

[2] = tested on: bovine papilloma (wart) caused by BPV in front teats; assay: as above; format: in vivo, cow (female dairy cows)
[3] = total of cows 01-04, ointment 3% by weight, 4 weeks

Fc1ccc(N2CCCCC2)c(NC(=S)c2ccncc2)c1 [Compound A, N-[5-fluoro-2-(1-piperidinyl)phenyl]-4-pyridinethioamide]
Ratio of warts that had smaller sizes or disappeared ([1]; Evaluation Method 2: only warts of less than 5 mm before application, 14 warts in the test sections, control sections 0%): 28.6% | Overall judgement of the ointment agent containing Compound A ([1]; based on the total scores and on the individual cow evaluations, 4 weeks): considered effective | Cases (cows) determined effective out of four cases ([1]; four cows, 4 weeks, ointment 3% by weight): Effective in three | State of diseased part in a test section (FIG. 2 images) ([1]; from before the start of administration to after the end of administration): warts disappeared | Test section Growth/Occurrence (evaluation score) ([1]; per individual cow, ointment (Compound A: 3% by weight) applied once a day to teat wart, 4 weeks, growth/occurrence=−1 per wart): 0 (3×) and −6 | Test section Size reduction/Disappearance (evaluation score) ([1]; per individual cow, ointment (Compound A: 3% by weight, white petrolatum) applied once a day to teat wart, 5-day administration with 2-day rest, 4 weeks, size reduction/disappearance=+1 per wart): +1 (2×) and +3 and +2 | Determination (pharmaceutical effect for each individual cow) ([1]; per individual cow, test section score versus control section (ointment base) score, 4 weeks): Ineffective; also recorded: Effective | Effectiveness score Test section ([1]; scores added for each individual cow, ointment 3% by weight, 4 weeks): +1 (2×) and −3 and +2 | Test section Growth/Occurrence, Total of four cows [1, 3]: −6 | Test section Size reduction/Disappearance, Total of four cows [1, 3]: +7 | Effectiveness score Test section, Total ([1]; total of four cows, control sections total −8, 4 weeks): +1 | Warts that disappeared among the additional reduced warts in the test section ([2]; administration continued for a further four weeks after the four-week administration): two | Additional warts with reduced size in the test section ([2]; administration continued under the same conditions for a further four weeks after the four-week administration): four
